Converted amounts (≈) assume the structure as drawn. Where two headings read alike, the source gives them in different places.
How the values were obtained:
[1] = system: Pseudomonas aeruginosa (i.e., Strain 4N3422); assay: Minimum inhibitory concentration against Pseudomonas aeruginosa Strain 4N3422; assay type: cell-based
Excerpt: The concentration of antibiotic utilized in the compositions of the present invention will vary depending on the intended use of the compositions (i.e., sterilization of the surgical field or prevention of post-surgical infections), and the relative antimicrobial activity of the specific antibiotic selected. The antimicrobial activity of antibiotics is generally expressed as the minimum concentration required to inhibit the growth of a specified pathogen. The concentration is also referred to as the “minimum inhibitory concentration” or “MIC”. The term “MIC90” refers to the minimum concentration of antibiotic required to inhibit the growth of ninety percent (90%) of a population of multiple strains of a microorganism. The concentration of an antibiotic required to totally kill a specified population of bacteria or other pathogens is referred to as the “minimum bactericidal concentration” or “MBC”. The minimum inhibitory concentrations of some of the preferred antibiotics of the present invention, relative to a specific strain of Pseudomonas aeruginosa (i.e., Strain 4N3422), are presented in the following table: […]

Staph. epidermidis = assay: MIC90 against Staph. epidermidis; assay type: cell-based
Excerpt: (§1) The concentration of antibiotic utilized in the compositions of the present invention will vary depending on the intended use of the compositions (i.e., sterilization of the surgical field or prevention of post-surgical infections), and the relative antimicrobial activity of the specific antibiotic selected. The antimicrobial activity of antibiotics is generally expressed as the minimum concentration required to inhibit the growth of a specified pathogen. The concentration is also referred to as the “minimum inhibitory concentration” or “MIC”. The term “MIC90” refers to the minimum concentration of antibiotic required to inhibit the growth of ninety percent (90%) of a population of multiple strains of a microorganism. The concentration of an antibiotic required to totally kill a specified population of bacteria or other pathogens is referred to as the “minimum bactericidal concentration” or “MBC”. The activity of antibiotics against Pseudomonas aeruginosa is particularly important in the present invention, because ophthalmic infections involving Pseudomonas aeruginosa represent an extremely serious condition which may ultimately result in the loss of the affected eye.

P. aeruginosa = assay: MIC90 against multiple strains of P. aeruginosa; assay type: cell-based
Excerpt: as §1

[2] = humans, one hour after administration, cited from earlier work
Hemo. influenzae = assay: MIC90 against Hemo. influenzae; assay type: cell-based
Excerpt: as §1

Strep. pneumoniae = assay: MIC90 against Strep. pneumoniae; assay type: cell-based
Excerpt: as §1

Staph. aureus = assay: MIC90 against multiple strains of Staph. aureus; assay type: cell-based
Excerpt: as §1

[3] = Ocular tissue drug concentration after topical dosing of rabbit eyes (HPLC); assay type: in vivo; details: New Zealand albino, 30 microliters, normal eyes, after 30 minutes
Protocol: The following formulations were tested: The route of administration was topical. The rabbits received 30 microliters of either the gel or solution formulations in both eyes. At the end of the study, the aqueous humor and cornea were collected and assayed by high performance liquid chromatography to determine the amount of drug present.

[4] = rabbits, subconjunctival injection; cited from earlier work
[5] = Staphylococcus epidermidis, read-out: MIC 90
[6] = Pseudomonas aeruginosa, read-out: MIC 90
[7] = Haemophilus influenzae, read-out: MIC 90
[8] = Streptococcus pneumoniae, read-out: MIC 90
[9] = Staphylococcus aureus, read-out: MIC 90

Molecule: NCC[C@H](O)C(=O)N[C@@H]1C[C@H](N)[C@@H](O[C@H]2O[C@H](CN)[C@@H](O)[C@H](O)[C@H]2O)[C@H](O)[C@H]1O[C@H]1O[C@H](CO)[C@@H](O)[C@H](N)[C@H]1O [Amikacin]
- MIC ([1]; read-out: MIC): 8 µg/mL (≈ 13.7 µM)

Molecule: CO/N=C(\C(=O)N[C@@H]1C(=O)N2C(C(=O)O)=C(COC(C)=O)CS[C@H]12)c1csc(N)n1 [Cefotaxime]
- MIC ([1]; read-out: MIC): 32 µg/mL (≈ 70.3 µM)

Molecule: CO[C@@]1(NC(=O)Cc2cccs2)C(=O)N2C(C(=O)O)=C(COC(N)=O)CS[C@@H]21 [Cefoxitin]
- MIC ([1]; read-out: MIC): > 32 µg/mL

Molecule: CC(C)(O/N=C(\C(=O)N[C@@H]1C(=O)N2C(C(=O)[O-])=C(C[n+]3ccccc3)CS[C@H]12)c1csc(N)n1)C(=O)O [Ceftazidime]
- MIC ([1]; read-out: MIC): 1 µg/mL (≈ 1.83 µM)

Molecule: O=C(O)c1cn(C2CC2)c2cc(N3CCNCC3)c(F)cc2c1=O [Ciprofloxacin]
- MIC90 (Staph. epidermidis; [5]): 0.4 µg/mL (≈ 1.21 µM)
- MIC90 (P. aeruginosa; [6]): 0.5 µg/mL (≈ 1.51 µM)
- maximum aqueous humor concentration ([2]; IV injection (200 mg)): 0.16 µg/mL
- maximum aqueous humor concentration ([2]; oral dosage (1 g)): 0.33 µg/mL
- MIC90 (Hemo. influenzae; [7]): 0.015 µg/mL (≈ 0.0453 µM)
- MIC90 (Strep. pneumoniae; [8]): 2 µg/mL (≈ 6.04 µM)
- MIC90 (Staph. aureus; [9]): 0.5 µg/mL (≈ 1.51 µM)
- concentration at 30 min ([3]; aqueous humor, read-out: drug levels in aqueous humor): 280 ng/g
- concentration at 30 min ([3]; cornea, read-out: drug levels in cornea): 10600 ng/g
- MIC ([1]; read-out: MIC): < 0.125 µg/mL

Molecule: C[C@@H](O)[C@H]1C(=O)N2C(C(=O)O)=C(SCCN=CN)C[C@H]12 [Imipenem]
- MIC ([1]; read-out: MIC): 1 µg/mL (≈ 3.34 µM)

Molecule: CCn1cc(C(=O)O)c(=O)c2cc(F)c(N3CCNCC3)cc21 [Norfloxacin]
- MIC ([1]; read-out: MIC): < 0.5 µg/mL

Molecule: CCN1CCN(C(=O)N[C@@H](C(=O)N[C@@H]2C(=O)N3[C@@H]2SC(C)(C)[C@@H]3C(=O)O)c2ccccc2)C(=O)C1=O [Piperacillin]
- MIC ([1]; read-out: MIC): < 8 µg/mL

Molecule: CC1(C)S[C@@H]2[C@H](NC(=O)[C@H](C(=O)O)c3ccsc3)C(=O)N2[C@H]1C(=O)O [Ticarcillin]
- MIC ([1]; read-out: MIC): 32 µg/mL (≈ 83.2 µM)

Molecule: NC[C@H]1O[C@H](O[C@H]2[C@H](O)[C@@H](O[C@H]3O[C@H](CO)[C@@H](O)[C@H](N)[C@H]3O)[C@H](N)C[C@@H]2N)[C@H](N)C[C@@H]1O [Tobramycin]
- MIC90 (Staph. epidermidis; [5]): 56 µg/mL (≈ 120 µM)
- MIC90 (P. aeruginosa; [6]): 20 µg/mL (≈ 42.8 µM)
- MIC90 (Hemo. influenzae; [7]): 13.4 µg/mL (≈ 28.7 µM)
- MIC90 (Strep. pneumoniae; [8]): 34.5 µg/mL (≈ 73.8 µM)
- MIC90 (Staph. aureus; [9]): 6.3 µg/mL (≈ 13.5 µM)
- MIC ([1]; read-out: MIC): > 8 µg/mL

Molecule: Gentamicin
- MIC90 (Staph. epidermidis): 12.5 µg/mL
- maximum concentration attained in the aqueous humor [4]: 8.8 µg/g
- MIC90 (P. aeruginosa): 8.0 µg/mL
- MIC90 (Hemo. influenzae): 0.8 µg/mL
- MIC90 (Strep. pneumoniae): 50.0 µg/mL
- MIC90 (Staph. aureus): 12.5 µg/mL
- MIC [1]: >8 µg/mL
